Test results reported in patent publication US20180110762A1, “Compositions Methods for Treating Chronic Kidney Disease” (Merck Sharp & Dohme Corp, priority 2015, published 2018).

Assay: ZSF1 rat 28-week in-feed study: body weight, food and water intake
Type: in vivo
Settings: obese ZSF1 rats
Method: The effects of Compound A (“A”) on renal function, plasma triglycerides, plasma cholesterol, kidney collagen I, kidney collagen III, renal histology, glomerular filtration rate, fibrosis score, and mRNA gene expression (profibrotic genes and integrin β3) were evaluated in male obese ZSF1 rats (a hybrid F1 of Zucker diabetic fatty rat and spontaneously hypertensive heart failure rat; a diabetic nephropathy model) when administered as in-feed for 28 weeks. Sixty obese male ZSF1 rats were randomized to five groups: Obese control (n=12), Compound A 60 mpk (n=12), Compound A 200 mpk (n=12), Compound A 400 mpk (n=12), Enalapril 10 mpk (n=12); Eight lean male ZSF1 rats were used for normal control. Renal functional changes were monitored by blood and urine analysis following in-feed dosing for 28 weeks. Compound exposure was also monitored during the study.

SMILES: COc1ccc([C@H](CC(=O)O)N2CCN(CCCc3ccc4c(n3)NCCC4)C2=O)cn1 [Compound A, 3-{2-Oxo-3-[3-(5,6,7,8-tetrahydro-[1,8]naphthyridin-2-yl)-propyl]imidazolidin-1-yl}-3 (S)-(6-methoxy-pyridin-3-yl)-propionic acid]
- Body Weight (60 mpk in-feed, week 1): 566.6 ± 7.3 grams
- Food Intake (60 mpk in-feed, week 1): 30.5 ± 1.2 grams/24 h
- Water Intake (60 mpk in-feed, week 1): 34.6 ± 3.4 mls/24 h
- Body Weight (60 mpk in-feed, week 2): 577.4 ± 7.2 grams
- Food Intake (60 mpk in-feed, week 2): 26.9 ± 1.0 grams/24 h
- Water Intake (60 mpk in-feed, week 2): 34.5 ± 2.2 mls/24 h
- Body Weight (60 mpk in-feed, week 4): 599.8 ± 7.4 grams
- Food Intake (60 mpk in-feed, week 4): 29.5 ± 2.1 grams/24 h
- Water Intake (60 mpk in-feed, week 4): 46.0 ± 5.7 mls/24 h
- Body Weight (60 mpk in-feed, week 6): 624.7 ± 9.0 grams
- Food Intake (60 mpk in-feed, week 6): 32.8 ± 0.9 grams/24 h
- Water Intake (60 mpk in-feed, week 6): 45.8 ± 4.5 mls/24 h
- Body Weight (60 mpk in-feed, week 8): 652.0 ± 9.4 grams
- Food Intake (60 mpk in-feed, week 8): 34.1 ± 1.1 grams/24 h
- Water Intake (60 mpk in-feed, week 8): 59.2 ± 4.5 mls/24 h
- Body Weight (60 mpk in-feed, week 10): 678.0 ± 10.9 grams
- Body Weight (60 mpk in-feed, week 12): 703.7 ± 11.9 grams
- Food Intake (60 mpk in-feed, week 12): 36.7 ± 1.6 grams/24 h
- Water Intake (60 mpk in-feed, week 12): 71.5 ± 4.9 mls/24 h
- Body Weight (60 mpk in-feed, week 14): 712.1 ± 12.7 grams
- Body Weight (60 mpk in-feed, week 16): 733.8 ± 13.2 grams
- Food Intake (60 mpk in-feed, week 16): 33.2 ± 1.3 grams/24 h
- Water Intake (60 mpk in-feed, week 16): 63.7 ± 4.9 mls/24 h
- Body Weight (60 mpk in-feed, week 18): 746.9 ± 14.1 grams
- Body Weight (60 mpk in-feed, week 21): 781.1 ± 14.1 grams
- Food Intake (60 mpk in-feed, week 21): 34.6 ± 1.6 grams/24 h
- Water Intake (60 mpk in-feed, week 21): 64.5 ± 8.5 mls/24 h
- Body Weight (60 mpk in-feed, week 24): 808.9 ± 14.6 grams
- Food Intake (60 mpk in-feed, week 24): 31.2 ± 1.0 grams/24 h
- Water Intake (60 mpk in-feed, week 24): 59.4 ± 4.7 mls/24 h
- Body Weight (60 mpk in-feed, week 28): 839.0 ± 14.9 grams
- Food Intake (60 mpk in-feed, week 28): 31.6 ± 1.0 grams/24 h
- Water Intake (60 mpk in-feed, week 28): 66.5 ± 6.6 mls/24 h
- Body Weight (60 mpk in-feed, week −2): 521.3 ± 6.9 grams
- Food Intake (60 mpk in-feed, week −2): 38.6 ± 1.0 grams/24 h
- Water Intake (60 mpk in-feed, week −2): 60.8 ± 4.5 mls/24 h
- Body Weight (200 mpk in-feed, week 1): 568.6 ± 7.4 grams
- Food Intake (200 mpk in-feed, week 1): 29.0 ± 1.0 grams/24 h
- Water Intake (200 mpk in-feed, week 1): 30.7 ± 1.9 mls/24 h
- Body Weight (200 mpk in-feed, week 2): 581.5 ± 7.0 grams
- Food Intake (200 mpk in-feed, week 2): 29.2 ± 1.1 grams/24 h
- Water Intake (200 mpk in-feed, week 2): 29.2 ± 2.5 mls/24 h
- Body Weight (200 mpk in-feed, week 4): 605.9 ± 7.1 grams
- Food Intake (200 mpk in-feed, week 4): 30.6 ± 1.0 grams/24 h
- Water Intake (200 mpk in-feed, week 4): 33.4 ± 2.0 mls/24 h
- Body Weight (200 mpk in-feed, week 6): 631.8 ± 7.7 grams
- Food Intake (200 mpk in-feed, week 6): 34.3 ± 1.6 grams/24 h
- Water Intake (200 mpk in-feed, week 6): 39.4 ± 2.8 mls/24 h
- Body Weight (200 mpk in-feed, week 8): 663.0 ± 7.4 grams
- Food Intake (200 mpk in-feed, week 8): 31.8 ± 1.2 grams/24 h
- Water Intake (200 mpk in-feed, week 8): 51.4 ± 4.6 mls/24 h
- Body Weight (200 mpk in-feed, week 10): 690.6 ± 8.5 grams
- Body Weight (200 mpk in-feed, week 12): 718.9 ± 9.3 grams
- Food Intake (200 mpk in-feed, week 12): 35.6 ± 0.9 grams/24 h
- Water Intake (200 mpk in-feed, week 12): 63.9 ± 4.8 mls/24 h
- Body Weight (200 mpk in-feed, week 14): 729.3 ± 11.9 grams
- Body Weight (200 mpk in-feed, week 16): 754.1 ± 11.9 grams
- Food Intake (200 mpk in-feed, week 16): 33.6 ± 1.5 grams/24 h
- Water Intake (200 mpk in-feed, week 16): 57.3 ± 5.0 mls/24 h
- Body Weight (200 mpk in-feed, week 18): 772.3 ± 13.1 grams
- Body Weight (200 mpk in-feed, week 21): 800.2 ± 13.9 grams
- Food Intake (200 mpk in-feed, week 21): 35.6 ± 0.9 grams/24 h
- Water Intake (200 mpk in-feed, week 21): 58.1 ± 3.6 mls/24 h
- Body Weight (200 mpk in-feed, week 24): 825.7 ± 14.7 grams
- Food Intake (200 mpk in-feed, week 24): 31.7 ± 1.2 grams/24 h
- Water Intake (200 mpk in-feed, week 24): 61.8 ± 3.5 mls/24 h
- Body Weight (200 mpk in-feed, week 28): 848.1 ± 16.4 grams
- Food Intake (200 mpk in-feed, week 28): 33.3 ± 1.2 grams/24 h
- Water Intake (200 mpk in-feed, week 28): 70.5 ± 5.6 mls/24 h
- Body Weight (200 mpk in-feed, week −2): 520.6 ± 6.4 grams
- Food Intake (200 mpk in-feed, week −2): 37.7 ± 1.4 grams/24 h
- Water Intake (200 mpk in-feed, week −2): 59.1 ± 5.9 mls/24 h
- Body Weight (400 mpk in-feed, week 1): 568.3 ± 6.5 grams
- Food Intake (400 mpk in-feed, week 1): 30.0 ± 1.6 grams/24 h
- Water Intake (400 mpk in-feed, week 1): 37.6 ± 2.8 mls/24 h
- Body Weight (400 mpk in-feed, week 2): 582.8 ± 6.5 grams
- Food Intake (400 mpk in-feed, week 2): 32.0 ± 1.2 grams/24 h
- Water Intake (400 mpk in-feed, week 2): 40.3 ± 3.1 mls/24 h
- Body Weight (400 mpk in-feed, week 4): 604.1 ± 7.2 grams
- Food Intake (400 mpk in-feed, week 4): 33.6 ± 0.9 grams/24 h
- Water Intake (400 mpk in-feed, week 4): 45.0 ± 3.7 mls/24 h
- Body Weight (400 mpk in-feed, week 6): 631.8 ± 8.9 grams
- Food Intake (400 mpk in-feed, week 6): 34.6 ± 1.2 grams/24 h
- Water Intake (400 mpk in-feed, week 6): 49.9 ± 4.8 mls/24 h
- Body Weight (400 mpk in-feed, week 8): 654.5 ± 10.6 grams
- Food Intake (400 mpk in-feed, week 8): 34.2 ± 1.4 grams/24 h
- Water Intake (400 mpk in-feed, week 8): 62.2 ± 5.6 mls/24 h
- Body Weight (400 mpk in-feed, week 10): 676.5 ± 12.7 grams
- Body Weight (400 mpk in-feed, week 12): 704.8 ± 12.8 grams
- Food Intake (400 mpk in-feed, week 12): 35.7 ± 0.7 grams/24 h
- Water Intake (400 mpk in-feed, week 12): 63.5 ± 5.3 mls/24 h
- Body Weight (400 mpk in-feed, week 14): 704.4 ± 14.6 grams
- Body Weight (400 mpk in-feed, week 16): 739.3 ± 15.0 grams
- Food Intake (400 mpk in-feed, week 16): 33.6 ± 0.7 grams/24 h
- Water Intake (400 mpk in-feed, week 16): 63.0 ± 3.9 mls/24 h
- Body Weight (400 mpk in-feed, week 18): 757.9 ± 16.9 grams
- Body Weight (400 mpk in-feed, week 21): 791.2 ± 18.4 grams
- Food Intake (400 mpk in-feed, week 21): 36.0 ± 1.2 grams/24 h
- Water Intake (400 mpk in-feed, week 21): 59.3 ± 4.4 mls/24 h
- Body Weight (400 mpk in-feed, week 24): 823.8 ± 18.9 grams
- Food Intake (400 mpk in-feed, week 24): 33.3 ± 1.5 grams/24 h
- Water Intake (400 mpk in-feed, week 24): 67.2 ± 4.8 mls/24 h
- Body Weight (400 mpk in-feed, week 28): 852.1 ± 19.5 grams
- Food Intake (400 mpk in-feed, week 28): 32.1 ± 1.7 grams/24 h
- Water Intake (400 mpk in-feed, week 28): 80.1 ± 4.6 mls/24 h
- Body Weight (400 mpk in-feed, week −2): 522.3 ± 7.1 grams
- Food Intake (400 mpk in-feed, week −2): 37.7 ± 1.1 grams/24 h
- Water Intake (400 mpk in-feed, week −2): 57.2 ± 4.9 mls/24 h
- effect on body weight (BW) (in-feed for 28 weeks): no significant effect
- effect on food intake (FI) (in-feed for 28 weeks): no significant effect
- effect on water intake (WI) (in-feed for 28 weeks): no significant effect
